Test results published in ChEMBL document CHEMBL6087456 (J Med Chem, 2025).
Values after ≈ are worked out from the molar mass of the structure shown.

Assays:
[1] = biological target: Dihydroorotate dehydrogenase (quinone), mitochondrial (Homo sapiens, UniProt Q02127); experiment: Inhibition of C-terminal His6-tagged recombinant human DHODH (29 to 395 residues) N-terminally truncated soluble domain extracted from Escherichia coli phage resistant BL21-DE3 using CoQD/DHA/DCIP as substrates
Plasmodium falciparum = experiment: Antiparasitic activity against asexual blood stage Plasmodium falciparum 3D7 incubated for 72 hrs by SYBR Green assay; format: functional, organism-based; conditions: 3D7, 72 h
[2] = Kinetic solubility of compound at pH 6.5 measured after 30 mins by nephelometry; format: physicochemical; conditions: buffer; for solubility kinetic at 0.5 h: pH 6.5, read-out: Kinetic_solubility; for Kinetic_solubility: pH 6.5, 0.5 h
[3] = Metabolic stability in human liver microsomes assessed as intrinsic clearance at 0.5 uM incubated for 60 mins in presence of NADPH by tandem quadrupole-Time of Flight MS; format: ADME, Microsome; conditions: 1 h
[4] = biological target: T1, Dihydroorotate dehydrogenase (quinone), mitochondrial (Plasmodium falciparum (isolate 3D7), UniProt Q08210); experiment: Inhibition of N-terminal His6-tagged recombinant Plasmodium falciparum DHODH (158 to 569 residues) N-terminally truncated soluble domain extracted from Escherichia coli phage resistant BL21-DE3 using CoQD/DHA/DCIP as substrates
T1 sequence (Q08210 whole entry): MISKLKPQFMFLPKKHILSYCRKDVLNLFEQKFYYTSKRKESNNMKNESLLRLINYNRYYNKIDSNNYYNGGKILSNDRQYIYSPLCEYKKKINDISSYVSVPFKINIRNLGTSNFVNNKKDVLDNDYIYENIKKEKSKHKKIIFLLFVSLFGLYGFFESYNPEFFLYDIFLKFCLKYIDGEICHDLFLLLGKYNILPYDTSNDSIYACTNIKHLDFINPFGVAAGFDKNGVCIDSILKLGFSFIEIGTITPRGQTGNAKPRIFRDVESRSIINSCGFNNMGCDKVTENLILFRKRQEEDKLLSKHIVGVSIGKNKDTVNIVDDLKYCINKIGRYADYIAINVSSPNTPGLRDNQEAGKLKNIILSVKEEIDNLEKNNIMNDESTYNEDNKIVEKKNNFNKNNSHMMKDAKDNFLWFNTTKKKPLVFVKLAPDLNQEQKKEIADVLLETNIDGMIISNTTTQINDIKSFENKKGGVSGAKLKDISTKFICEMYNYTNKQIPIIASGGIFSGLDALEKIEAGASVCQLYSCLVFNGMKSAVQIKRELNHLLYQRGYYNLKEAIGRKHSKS

Sequence of Dihydroorotate dehydrogenase (quinone), mitochondrial (Homo sapiens, UniProt Q02127) (Q02127 whole entry, the tested form may be a part): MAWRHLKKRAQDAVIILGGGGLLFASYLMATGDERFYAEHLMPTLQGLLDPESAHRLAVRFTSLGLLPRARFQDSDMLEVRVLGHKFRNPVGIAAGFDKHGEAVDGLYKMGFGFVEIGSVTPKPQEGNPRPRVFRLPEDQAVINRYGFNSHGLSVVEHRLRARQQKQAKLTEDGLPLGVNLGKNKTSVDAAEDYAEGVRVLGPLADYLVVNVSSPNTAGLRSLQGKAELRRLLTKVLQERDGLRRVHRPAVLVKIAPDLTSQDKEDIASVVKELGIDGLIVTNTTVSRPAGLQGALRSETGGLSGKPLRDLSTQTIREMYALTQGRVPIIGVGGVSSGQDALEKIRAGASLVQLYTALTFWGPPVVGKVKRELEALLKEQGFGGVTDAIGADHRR

SMILES: CC[C@@](O)(c1cc(F)c(F)c(F)c1)c1c2ccn(C3CC3)c(=O)c2nn1C
- IC50 [1]: 2100 nM
- EC50 (Plasmodium falciparum): 1 nM
- solubility kinetic at 0.5 h [2]: 50 µM (≈ 18.9 µg/mL)
- intrinsic clearance (CLint) [3]: 6 µL/min/mg

SMILES: Cn1nc2c(=O)n(C3CC3)ccc2c1[C@](O)(c1ccc(F)c(Cl)c1)C(F)(F)F
- IC50 [1]: 8500 nM
- EC50 (Plasmodium falciparum): 1 nM
- solubility kinetic at 0.5 h [2]: 20 µM (≈ 8.32 µg/mL)
- intrinsic clearance (CLint) [3]: < 3 µL/min/mg

SMILES: CC[C@](N)(c1cnc(C(F)(F)F)c(Cl)c1)c1c2ncn(C3CC3)c(=O)c2nn1C
- IC50 [4]: 4200 nM
- EC50 (Plasmodium falciparum): 980 nM

SMILES: CC[C@@](O)(c1ccc(C(F)(F)F)nc1)c1c2ccn(C3CC3)c(=O)c2nn1C
- IC50 [1]: 5000 nM
- EC50 (Plasmodium falciparum): 3 nM
- solubility kinetic at 0.5 h [2]: 40 µM (≈ 15.7 µg/mL)
- intrinsic clearance (CLint) [3]: < 3 µL/min/mg

SMILES: CC[C@](O)(c1cnc(C(F)(F)F)c(Cl)c1)c1c2ccn(C3CC3)c(=O)c2nn1C
- IC50 [4]: 14000 nM
- EC50 (Plasmodium falciparum): 440 nM

SMILES: Cc1cc(Nc2ccc(S(F)(F)(F)(F)F)cc2)n2nc(C(C)(F)F)nc2n1 [DSM-265]
- EC50 (Plasmodium falciparum): 7 nM

SMILES: CCn1cc(C)c2c([C@@H](O)c3ccc(C(F)(F)F)nc3)n(C)nc2c1=O
- IC50 [4]: 280 nM
- EC50 (Plasmodium falciparum): 220 nM

SMILES: CC[C@@](O)(c1ccc(C(F)(F)F)c(Cl)c1)c1c2cnn(C3CC3)c(=O)c2nn1C
- IC50 [4]: 6 nM
- solubility kinetic at 0.5 h [2]: 6.25 µM (≈ 2.67 µg/mL)
- intrinsic clearance (CLint) [3]: < 3 µL/min/mg

SMILES: CCn1cc(Cl)c2c(Cc3ccc(N4CCN(C)CC4)nc3)n(C)nc2c1=O
- IC50 [4]: 1500 nM
- EC50 (Plasmodium falciparum): 2700 nM

SMILES: Cn1nc2c(=O)n(C3CC3)ncc2c1[C@](O)(c1ccc(C(F)(F)F)c(Cl)c1)C1CC1
- IC50 [1]: > 30000 nM
- EC50 (Plasmodium falciparum): 2 nM
- Kinetic_solubility [2]: < 5 µM
- intrinsic clearance (CLint) [3]: < 3 µL/min/mg

SMILES: Cn1nc2c(=O)n(C3CC3)ccc2c1Cc1ccc(C(F)(F)F)nc1
- IC50 [4]: 910 nM
- IC50 [1]: > 100000 nM
- EC50 (Plasmodium falciparum): 590 nM

SMILES: Cn1nc2c(=O)n(C3CC3)cnc2c1[C@@](O)(c1cnc(C(F)(F)F)c(Cl)c1)C(F)(F)F
- IC50 [4]: 4500 nM
- EC50 (Plasmodium falciparum): 550 nM

SMILES: CCn1cc(C2CC2)c2c(Cc3cnc(C(F)(F)F)c(Cl)c3)n(C)nc2c1=O
- IC50 [1]: 60000 nM
- EC50 (Plasmodium falciparum): 35 nM
- solubility kinetic at 0.5 h [2]: 50 µM (≈ 20.5 µg/mL)
- intrinsic clearance (CLint) [3]: 28 µL/min/mg

SMILES: CCn1cc(C2CC2)c2c([C@H](O)c3cnc(C(F)(F)F)c(Cl)c3)n(C)nc2c1=O
- IC50 [1]: > 100000 nM
- EC50 (Plasmodium falciparum): 5 nM
- solubility kinetic at 0.5 h [2]: 80 µM (≈ 34.1 µg/mL)
- intrinsic clearance (CLint) [3]: 6 µL/min/mg

SMILES: Cn1nc2c(=O)n(C3CC3)cc(Cl)c2c1Cc1ccc(C(F)(F)F)nc1
- IC50 [1]: 16000 nM
- EC50 (Plasmodium falciparum): 20 nM
- solubility kinetic at 0.5 h [2]: 70 µM (≈ 26.8 µg/mL)
- intrinsic clearance (CLint) [3]: 10 µL/min/mg

SMILES: CCn1cc(C2CC2)c2c(Cc3cnc(C(F)(F)F)c(C)c3)n(C)nc2c1=O
- IC50 [1]: 67000 nM
- EC50 (Plasmodium falciparum): 4 nM
- solubility kinetic at 0.5 h [2]: 50 µM (≈ 19.5 µg/mL)
- intrinsic clearance (CLint) [3]: 24 µL/min/mg

SMILES: CCn1ccc2c([C@](O)(c3ccc(C(F)(F)F)nc3)C3CC3)n(C)nc2c1=O
- IC50 [1]: > 100000 nM
- EC50 (Plasmodium falciparum): 7 nM
- solubility kinetic at 0.5 h [2]: 80 µM (≈ 31.4 µg/mL)
- intrinsic clearance (CLint) [3]: < 3 µL/min/mg

SMILES: Cn1nc2c(=O)n(C3CC3)ccc2c1[C@](N)(c1cnc(C(F)(F)F)c(Cl)c1)C(F)(F)F
- IC50 [1]: > 30000 nM
- EC50 (Plasmodium falciparum): 3 nM
- solubility kinetic at 0.5 h [2]: 40 µM (≈ 18.6 µg/mL)
- intrinsic clearance (CLint) [3]: < 3 µL/min/mg

SMILES: CCn1cc(C)c2c([C@@H](N)c3ccc(C(F)(F)F)nc3)n(C)nc2c1=O
- IC50 [4]: 1100 nM
- EC50 (Plasmodium falciparum): 2600 nM

SMILES: CCCn1ccc2c(Cc3ccc(C(F)(F)F)nc3)n(C)nc2c1=O
- EC50 (Plasmodium falciparum): 14000 nM

SMILES: Cn1nc2c(=O)n(C3CC3)ncc2c1[C@@](O)(c1cnc(C(F)(F)F)c(Cl)c1)C(F)(F)F
- EC50 (Plasmodium falciparum): 700 nM

SMILES: Cn1nc2c(=O)n(C3CC3)cnc2c1[C@](O)(c1ccc(C(F)(F)F)c(C#N)c1)C(F)(F)F
- IC50 [4]: 14 nM
- IC50 [1]: 18000 nM
- solubility kinetic at 0.5 h [2]: 40 µM (≈ 18.3 µg/mL)
- intrinsic clearance (CLint) [3]: < 3 µL/min/mg

SMILES: CCn1cc(C2CC2)c2c(CN3CCC(C)(F)CC3)n(C)nc2c1=O
- IC50 [1]: > 30000 nM
- EC50 (Plasmodium falciparum): 18 nM
- Kinetic_solubility [2]: > 100 µM
- intrinsic clearance (CLint) [3]: 18 µL/min/mg

SMILES: Cn1nc2c(=O)n(C)ccc2c1Cc1ccc(C(F)(F)F)nc1
- IC50 [4]: 4500 nM
- EC50 (Plasmodium falciparum): 6000 nM
